Source: US20260256716A1, “COMPOSITIONS AND METHODS OF USE THEREOF” (Board of Supervisors of Louisiana State University and …, priority 2023, published 2026)
Entries after “also recorded” stand apart in the source; their conditions may differ.

Tests used:
[1] = tested on: ARPE-19 cells; assay: ARPE-19 proliferation (DAPI cell number, fold change in growth); assay type: cell-based, human; details: for cellular replication / proliferation: physiologically relevant serotonin levels, 72 h
Protocol: Specific 5-HT2A Receptor Activation via Model Phenethylamines, like R-DOI. […] ARPE-19 cells were plated in nutrient rich media, DMEM, containing 7% dialyzed FCS and then starved in DMEM media containing 0.5% dialyzed FCS. Cells were then changed to 7% dialyzed FCS DMEM media containing physiolocial relevant levels of serotonin at varying concentrations and grown for 72-hours. Cell numbers were determined through DNA staining with DAPI and fold change in growth was determined from baseline readings at 24-hours. To assess if agonists of the 5HT2A receptor could enhance cell health and proliferation specifically through the 5-HT2A receptor, the model 5-HT2A receptor agonist, R-DOI was added at either 0.1 nM or 1 nM. […] Also, included is a summary of physiological serotonin and 5-HT2A receptor agonist/antagonist outcomes on cellular proliferation. This increase in proliferation promotes the formation of a compact RPE-monolayer which is important for maintaining a healthy blood-retinal barrier and can occur with low dose administration of 5-HT2A receptor agonists.
ARPE-19 cells were plated in nutrient rich media, DMEM, containing 7% dialyzed FCS and then starved in DMEM media containing 0.5% dialyzed FCS. Cells were then changed to 7% dialyzed FCS DMEM media containing physiological relevant levels of serotonin at varying concentrations and grown for 72-hours. Cell numbers were determined through DNA staining with DAPI and fold change in growth was determined from baseline readings at 24-hours. To assess if serotonin enhances cell health and proliferation specifically through the 5-HT2A receptor, the 5-HT2A receptor antagonist, M100,907 at 10 nM was included during serotonin induction.

[2] = tested on: ARPE-19 cells; assay: SA-β-Gal cellular senescence in ARPE-19 cells in nutrient rich media (DMEM); assay type: cell-based, human; details: 10 nM in starvation media overnight, then DMEM 7% FCS 72 hours
Protocol: ARPE-19 cells in nutrient rich media (DMEM; 7% FCS) were seeded overnight prior to being replaced with starvation media (DMEM; 0.5% FCS) containing 10 nM R-DOI or 10 nM M100,907. After overnight incubation in starvation media with drug, cells were swapped to DMEM 7% FCS media for 72-hours. After the 72-hour incubation, cells were fixed and stained for SA-β-Gal for 6-hours. Cells nuclei were then stained with DAPI for total-cell enumeration. SA-β-Gal positive cells, and total cells per frame, were quantified by microscopy.

[3] = tested on: ARPE-19 cells; assay: Hyperglycemia induced SA-β-Gal cellular senescence in ARPE-19 cells (HPLM); assay type: cell-based, human
Protocol: Consistent with Retinal Deterioration by Glucose-Induced Cellular Senescence in the Diabetic Population, Hyperglycemic conditions induce increased disease promoting Cellular Senescence that is abrogated by low nM concentrations of the Representative 5-HT2A Receptor Agonist, R-DOI Returning to Base-line Homeostatic Levels. ARPE-19 cells in physiologically relevant media (HPLM; 7% FCS) were seeded overnight prior to being replaced with starvation media (HPLM 0.5% FCS) containing 10 nM R-DOI. After overnight incubation in starvation media, cells were swapped to media containing diabetic blood glucose levels (HPLM 7% FCS containing 5 mM, 10 mM, 20 mM, or 30 mM glucose) for 72-hours. After the 72-hour incubation, cells were fixed and stained for SA-β-Gal for 6-hours. Cells nuclei were then stained with DAPI for total-cell enumeration. SA-β-Gal positive cells, and total cells per frame, were quantified by microscopy. Pathological/diabetic glucose concentrations induce cellular senescence. 5-HT2A receptor agonism alleviates glucose-induced senescence at diabetic blood glucose levels. […]
Effects of specific phenethylamine 5-HT2A receptor agonists on reduction of Hyperglycemia induced Disease Promoting Cellular Senescence: Inhibition of Cell Senescence and Disease Processes are Drug and Dose Dependent. […] SA-3-Gal positive cells, and total cells per frame, were quantified by microscopy. For each 5-HT2A agonist assessed, the % of senescent cells is expressed relative to the hyperglycemic control. […]
Inhibition of Cell Senescence and Disease Processes are Drug and Dose Dependent. […] SA-β-Gal positive cells, and total cells per frame, were quantified by microscopy. For each 5-HT2A agonist assessed, the % of senescent cells is expressed relative to the hyperglycemic control. […]

[4] = tested on: phosphorylated myosin light chain; assay: Western blot of phosphorylated myosin light chain (MLC) in ARPE-19 cells under hyperglycemic conditions; assay type: cell-based, human
Protocol: A Hallmark of Age-Associated Ocular and Neurodegenerative Disorders is Cytoskeletal Alteration and Induction of CONTRACTILE Stress Fiber Formation. Expression and activation via phosphorylation of Myosin Light Chain (MLC), is a biomarker of disease development. ARPE-19 cells and ARPE-19 cells specifying 5-HT2AR knockouts were plated in nutrient rich media (DMEM; 7% FCS) overnight. Cells were fixed, permeabilized, and stained phalloidin and α-phosphorylated-Myosin light chain. Cytoskeletal elements were then visualized by fluorescent microscopy to visualize actin fiber cytoskeletal structures (phalloidin, red) and contractile phosphorylated myosin light chain (green) via fluorescent microscopy. […] ARPE-19 cells were cultured under hyperglycemic conditions in nutrient rich media (DMEM High glucose; 7% FCS) overnight either in the absence or presence of 5-HT2A receptor agonists R-DOI and 2CiBu at 10 nm or 100 nM concentrations. The relative expression of the activated disease biomarker contractile phosphorylated myosin light chain was determined using specific antibodies and western blot analysis. 5-HT2A agonists. […] Therefore, 5-HT2A agonism at low concentrations have the potential to prevent and reverse deleterious cytoskeletal events that can be induced under hyperglycemic conditions, such as in diabetics.
This can be consistent with 2C-iBu being able to regulate IOP and that 5HT2A agonists prevented edema formation and disruption of corneal architecture in a model of herpetic keratitis.

[5] = tested on: AMP kinase; assay: AMP kinase activation in treated cells; assay type: cell-based; details: low nM concentrations
[6] = tested on: ARPE-19 cells; assay: ATP luciferase assay in ARPE-19 cells; assay type: cell-based, human
[7] = tested on: ARPE cells; assay: Blue light induced mitochondrial fragmentation in ARPE cells (mitotracker green); assay type: cell-based, human; details: 100 nM; 48 hours; hyperglycemic conditions; blue light 400 nm
Protocol: ARPE cells grown under hyperglycemic conditions were plated and mock treated or treated with R-DOI or 2C-iBu at 100 nM. 48 hours post treatment, mitochondria in live cells were visualized by staining mitochondria with mitotracker green (green). Once stained, live ARPE cells were exposed to focused blue light at 400 nm and the ability of drugs to protect against blue light damage-induced mitochondrial fragmentation was assessed.

[8] = tested on: A549 cells; assay: Cell viability after cumene peroxide oxidative stress (Hoechst / propidium iodide); assay type: cell-based
Protocol: A549 cells were treated with the indicated concentrations of R-DOI (panel A) or 2C-iBu (panel B) and subsequently exposed to cumene peroxide to oxidatively stress cells. Cell viability was visualized by staining with Hoescht (Blue) to mark total cells (live plus dead) and propidium iodide (red) to mark dead cells.

[9] = tested on: ARPE-19 cells; assay: FACS forward scatter cell size of ARPE-19 cells; assay type: cell-based, human; details: treated overnight, then 4 days in normal media
Excerpt: Upon initial seeding of potential 5HT2A KD cells there was a readily apparent alteration of normal ARPE cell morphology. Cells appeared flattened, extended, highly attached and enlarged. Each cell line isolate maintained this enlarged and flattened cell morphology as shown to the right and quantified below. […] This markedly altered morphology is present in cells that have begun to undergo changes related to aging, including evolving a senescent or pre-senescent phenotype. Therefore, FACS analysis of 5HT2A KD cells was performed comparing the cell size of Forward Scatter to ARPE-19 cells, treated overnight with Etoposide, an inhibitor of topoisomerase, and a known inducer of cell senescence, and then cultured for 4 days in normal media in the absence of etoposide. […] Further an increase in particles of “cell degranulation” sizing was also observed in all conditions compared to ARPE-19 WT controls.

NCCc1c[nH]c2ccc(O)cc12 [Serotonin, 5-hydroxytryptamine]
cellular replication / proliferation [1]: Enhances Cellular Health and Replication
cellular replication / proliferation ([1]; listed as 5-HT): increase cellular replication; also recorded: increase ARPE-19 Proliferation
cellular replication / proliferation ([1]; listed as serotonin): enhance cellular replication patterns; also recorded: enhance replication of cells

COc1cccc([C@H](O)C2CCN(CCc3ccc(F)cc3)CC2)c1OC [M100,907, reference compound]
serotonin-mediated enhanced replication ([1]; antagonist at 10 nM during serotonin induction): abrogated serotonin-mediated enhanced replication
cellular senescence (SA-β-Gal positive cells) [2]: Increases Proportions of Cellular Senescence

COc1cc(C(F)(F)F)c(OC)cc1C[C@@H](C)N [R-DOTFM]
concentration at which disease is exacerbated [3]: ≥ 10 nM
hyperglycemia induced cellular senescence relative to hyperglycemic control ([3]; 1 uM to 0.1 nM, HPLM 30 mM glucose, 72 hours): enhances rather than inhibits Aging-Associated Disease Processes and Cellular Senescence

COc1cc(CC(C)C)c(OC)cc1CCN [2C-iBu, 2,5-Dimethoxy-4-isobutylphenethylamine]
hyperglycemia induced phosphorylated MLC levels ([4]; ARPE-19, DMEM High glucose 7% FCS overnight, 10 nM, western blot): suppressed hyperglycemia induced phosphorylated MLC levels
phosphorylation of MLC ([4]; WT ARPE-19 in media with hyperglycemic glucose (17.5 mM), low dose, not high doses): inhibited
AMP kinase activation [5]: activation of AMP kinase
ATP levels relative to Mock treated ARPE-19 cells ([6]; 10 fold dilutions 100 nM to 0.1 nM): Increase Mitochondrial Function And ATP Production
production of ATP ([6]; ARPE WT cells, 24 h after administration): enhanced production of ATP
blue light induced mitochondrial fragmentation/damage [7]: Inhibit Blue Light and Oxidative Stress Induced Mitochondrial Fragmentation/Damage
oxidative stress-induced cell death [8]: protected cells from oxidative stress-induced cell death

COc1cc([C@@H]2c3cc4c(cc3[C@@H](O[C@@H]3O[C@@H]5CO[C@@H](C)O[C@H]5[C@H](O)[C@H]3O)[C@H]3COC(=O)[C@H]23)OCO4)cc(OC)c1O [etoposide]
cell size (forward scatter) [9]: increased cell size
